Columns and labels:
Glutamate NMDA receptor [1] = experiment: Inhibition of [3H]-CGS- 19755 binding to N-methyl-D-aspartate glutamate receptor in rat crude synaptic membranes; type: cell membranes, Membrane
Mus musculus [2] = experiment: Effective dose of the intraperitoneally administered compound causing loss of traction reflex, was tested in N-methyl-D-aspartic acid convulsions model; type: functional; settings: ip
Mus musculus [3] = experiment: Effective dose of the intraperitoneally administered compound protecting mice against tonic seizures, was tested in N-methyl-D-aspartic acid convulsions model; type: functional; settings: ip
Glutamate NMDA receptor [4] = experiment: Inhibition of [3H]-CGS- 19755 binding to N-methyl-D-aspartic acid receptors in rat crude synaptic membranes; type: cell membranes, Membrane

Row | SMILES | IC50 (Glutamate NMDA receptor [1]) [µM] | ED50 (Mus musculus [2]) [mg/kg] | ED50 (Mus musculus [3]) [mg/kg] | IC50 (Glutamate NMDA receptor [4]) [µM]
1 | CC(C)([C@H]1CCN[C@@H](C(=O)O)C1)P(=O)(O)O | 1.3 | – | – | –
2 | O=C(O)[C@H]1C[C@H](CP(=O)(O)O)CCN1 | 0.452 | – | – | –
3 | O=C(O)[C@H]1C[C@@H](C/C=C/P(=O)(O)O)CCN1 | 0.072 | 14 | 2.5 | –
4 | N[C@H](CCCCCP(=O)(O)O)C(=O)O | – | 188 | 34 | 0.912
5 | O=C(O)C1CN(CCCP(=O)(O)O)CCN1 (stereo not drawn) | – | 6.1 | 1.9 | 0.22
6 | O=C(O)[C@H]1C[C@@H](CCCP(=O)(O)O)CCN1 | – | 5.4 | 2 | 0.098
7 | O=C(O)[C@H]1C[C@H](CCCP(=O)(O)O)CCN1 | 0.105 | – | – | –
8 | CN1CC[C@H](CP(=O)(O)O)C[C@@H]1C(=O)O | 28 | – | – | –
9 | C[C@H]1CN[C@@H](C(=O)O)C[C@H]1CP(=O)(O)O | 0.078 | 29 | 7.1 | –
10 | O=C(O)[C@H]1C[C@H](/C=C/CP(=O)(O)O)CCN1 | 0.039 | 14 | 8.3 | –
11 | C[C@@H]1C[C@H](CP(=O)(O)O)C[C@H](C(=O)O)N1 | 1.6 | 84 | 34 | –
12 | N[C@@H](CCCP(=O)(O)O)C(=O)O | – | > 154 | > 154 | 0.35
13 | C[C@H]1[C@@H](CP(=O)(O)O)CCN[C@H]1C(=O)O | 1.3 | 33 | 26 | –
14 | O=C(O)[C@@H]1C[C@H](CP(=O)(O)O)CCN1 [SELFOTEL] | – | 5.4 | 2.1 | 0.032
15 | CC([C@H]1CCN[C@@H](C(=O)O)C1)P(=O)(O)O (stereo partly drawn) | 0.8 | 64 | 21 | –
16 | O=C(O)[C@H]1C[C@@H](/C=C/CP(=O)(O)O)CCN1 | 0.014 | 1.9 | 1.2 | –
17 | O=C(O)[C@H]1C[C@H](C/C=C/P(=O)(O)O)CCN1 | 0.08 | 20 | 10 | –
